Data from US10335399B2, “Chromane, isochromane and dihydroisobenzofuran derivatives as mGluR2—negative allosteric modulators, compositions, and their use” (Merck Sharp & Dohme Corp., priority 2016, dated 2019).

Molecular target: recombinant human mGluR2 (Homo sapiens (Human), UniProt Q14416)
Experiment: FLIPR Ca2+ mobilization assay: inhibition of glutamate-dependent mGluR2 activity
Type: cell-based
Conditions: CHO dhfr- cells stably expressing recombinant human mGluR2 and Gα16, Fluo-4 AM, FLIPR384; inhibition of response to 2,500 nM glutamate
Description: Inhibition constants (IC50s; the concentration of compound required to provide 50% of maximal activity) are determined as follows. The compounds of the invention were tested in a fluorescence laser imaging plate reader based assay. This assay is a common functional assay to monitor Ca^2+ mobilization in whole cells expressing recombinant receptor coupled with a promiscuous G-protein. CHO (Chinese hamster ovary) dhfr− cells stably expressing recombinant human mGluR2 and Gα16 loaded with Fluo-4 AM (Invitrogen, Carlsbad Calif., USA) were treated with various concentrations of each of the tested compounds of the invention and the Ca^2+ response was monitored on a FLIPR384 instrument (Molecular Devices, Sunnydale Calif., USA). […] The maximum calcium response at each concentration of compound for agonist or antagonist were plotted as dose responses and the curves were fitted with a four parameter logistic equation giving IC50 and Hill coefficient using the iterative non-linear curve fitting software ADA (Merck & Co., Inc.). Data in the following table lists the activity of each compound to inhibit glutamate-dependent mGluR2 activity in this cellular assay.

Chain of recombinant human mGluR2 (Q14416 19-872): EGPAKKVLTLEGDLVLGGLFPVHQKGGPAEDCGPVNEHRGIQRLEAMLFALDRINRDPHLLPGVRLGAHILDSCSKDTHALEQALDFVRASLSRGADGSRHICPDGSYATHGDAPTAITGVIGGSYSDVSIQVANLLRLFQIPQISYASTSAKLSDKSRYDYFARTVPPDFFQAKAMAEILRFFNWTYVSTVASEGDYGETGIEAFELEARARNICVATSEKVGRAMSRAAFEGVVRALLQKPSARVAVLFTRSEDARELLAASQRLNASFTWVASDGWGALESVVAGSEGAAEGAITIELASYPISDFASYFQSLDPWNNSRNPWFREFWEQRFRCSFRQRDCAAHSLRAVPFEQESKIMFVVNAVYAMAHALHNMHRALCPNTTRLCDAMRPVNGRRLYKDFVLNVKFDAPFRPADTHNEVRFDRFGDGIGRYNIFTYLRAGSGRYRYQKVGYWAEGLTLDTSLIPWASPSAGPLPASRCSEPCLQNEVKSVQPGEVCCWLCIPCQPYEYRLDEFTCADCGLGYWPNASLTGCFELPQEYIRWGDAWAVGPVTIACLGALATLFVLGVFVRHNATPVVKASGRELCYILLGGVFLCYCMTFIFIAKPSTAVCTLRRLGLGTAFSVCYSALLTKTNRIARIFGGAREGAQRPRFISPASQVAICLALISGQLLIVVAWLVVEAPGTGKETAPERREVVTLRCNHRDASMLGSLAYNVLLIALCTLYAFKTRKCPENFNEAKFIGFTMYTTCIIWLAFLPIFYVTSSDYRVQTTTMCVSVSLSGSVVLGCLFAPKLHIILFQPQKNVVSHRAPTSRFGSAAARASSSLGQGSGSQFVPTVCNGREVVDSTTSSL

Row | SMILES | IC50 [nM]
1 | C[C@@H]1Cc2c(-c3ccc(F)cc3F)cc(C(N)=O)nc2O[C@H]1COC(F)F [Example 3-9C, (2R,3R)-2-((difluoromethoxy)methyl)-5-(2,4-difluoropheny)-3-methyl-3,4-dihydro-2H-pyrano[2,3-b]pyridine-7-carboxamide] | 15
2 | Cn1cc(-c2cc(C(N)=O)nc3c2CC2CCC3O2)cn1 (single isomer, unassigned) [Example 1-4A, (6R,9S)- or (6S,9R)-4-(1-methyl-1H-pyrazol-4-yl)-6,7,8,9-tetrahydro-5H-6,9-epoxycyclo-hepta[b]pyridine-2-carboxamide] | > 3000
3 | NC(=O)c1cc(-c2ccc(F)cc2F)c2c(n1)O[C@@H](CO)CC2 (single isomer, unassigned) [Example 2-1B] | 179
4 | C[C@H]1Cc2c(-c3ccc(F)cc3F)cc(C(N)=O)nc2O[C@@H]1CO [Example 2-2B, (2S,3S)-5-(2,4-difluorophenyl)-2-(hydroxymethyl)-3-methyl-3,4-dihydro-2H-pyrano[2,3-b]pyridine-7-carboxamide] | 15
5 | CC(C)[C@H]1CCc2c(-c3ccc(F)cc3F)cc(C(N)=O)nc2O1 (single isomer, unassigned) [Example 2-4B] | 69
6 | CC1(C)COc2nc(C(N)=O)cc(-c3ccc(F)cc3F)c2C1 [Example 2-7, 5-(2,4-difluorophenyl)-3,3-dimethyl-3,4-dihydro-2H-pyrano[2,3-b]pyridine-7-carboxamide] | 25
7 | NC(=O)c1cc(-c2ccc(F)cc2F)c2c(n1)O[C@H](C1CC1)CC2 [Example 2-3B, (S)-2-cyclopropyl-5-(2,4-difluorophenyl)-3,4-dihydro-2H-pyrano[2,3-b]pyridine-7-carboxamide] | 32
8 | NC(=O)c1cc(-c2ccc(F)cc2F)c2c(n1)O[C@H](CO)CC2 [Example 2-1A, (S)-5-(2,4-difluorophenyl)-2-(hydroxmethyl)-3,4-dihydro-2H-pyrano[2,3-b]pyridine-7-carboxamide] | 38
9 | NC(=O)c1cc(-c2ncc(Cl)cc2F)c2c(n1)[C@H]1CC[C@@H](C2)O1 (single isomer, unassigned) [Example 1-7A] | > 3000
10 | NC(=O)c1cc(-c2ccc(Cl)cc2F)c2c(n1)[C@H]1CC[C@@H](C2)O1 (single isomer, unassigned) [Example 1-3A, (6S,9R)- or (6R,9S)-4-(4-chloro-2-fluorophenyl)-6,7,8,9-tetrahydro-5H-6,9-epoxycyclo-hepta[b]pyridine-2-carboxamide] | 65

More lines, now with the values ahead:

Row | IC50 [nM] | SMILES
11 | 19 | NC(=O)c1cc(-c2ccc(F)cc2F)c2c(n1)O[C@H](COC(F)F)CC2 [Example 3-1B, (S)-2-((difluoromethoxy)methyl)-5-(2,4-difluorophenyl)-3,4-dihydro-2H-pyrano[2,3-b]pyridine-7-carboxamide]
12 | 9 | C[C@H]1Cc2c(-c3ccc(F)cc3F)cc(C(N)=O)nc2O[C@H]1COC(F)F (single isomer, unassigned) [Example 3-9D]
13 | 24 | NC(=O)c1cc(-c2ccc(F)cc2F)c2c(n1)O[C@@H](CC(F)(F)F)CC2 (single isomer, unassigned) [Example 3-8B]
14 | 28 | NC(=O)c1cc(-c2ccc(F)cc2F)c2c(n1)O[C@@H](CNCC(F)(F)F)CC2 (single isomer, unassigned) [Example 4-2B]
15 | 2520 | Cc1ncc(-c2cc(C(N)=O)nc3c2CCC(COC(F)F)O3)s1 (single isomer, unassigned) [Example 3-3B, (R)- or (S)-2-((difluoro-methoxy)methyl)-5-(2-methylthiazol-5-yl)-3,4-dihydro-2H-pyrano[2,3-b]pyridine-7-carboxamide]
16 | 11 | C[C@H](OC(F)F)[C@H]1CCc2c(-c3ccc(F)cc3F)cc(C(N)=O)nc2O1 [Example 2-9C, (R)-2-((S)-1-(difluoromethoxy)ethyl)-5-(2,4-difluorophenyl)-3,4-dihydro-2H-pyrano[2,3-b]pyridine-7-carboxamide]
17 | 8 | C[C@@]1(COC(F)F)CCc2c(-c3ccc(F)cc3F)cc(C(N)=O)nc2O1 (single isomer, unassigned) [Example 2-8A]
18 | 12 | NC(=O)c1cc(-c2ccc(F)cc2F)c2c(n1)O[C@H](CC(F)(F)F)CC2 (single isomer, unassigned) [Example 3-8A]
19 | 274 | NC(=O)c1cc(-c2cnn(C(F)F)c2)c2c(n1)OC(COC(F)F)CC2 (single isomer, unassigned) [Example 3-4A, (S)- or (R)-2-((difluoro-methoxy)methyl)-5-(1-(difluoromethyl)-1H-pyrazol-4-yl)-3,4-dihydro-2H-pyrano[2,3-b]pyridine-7-carboxamide]
